From US8648089B2, “1,3,6-substituted indole derivatives having inhibitory activity for protein kinase” (Korea Institute of Science and Technology, priority 2009, dated 2014)

Experiments:
[1] = target: B-Raf-V600E kinase (Homo sapiens, UniProt P15056, V600E); experiment: B-Raf kinase activity (kinase cascade assay); type: biochemical; settings: MEK1/Erk2/MBP, [γ-32P] ATP, read-out: B-Raf-V600E kinase inhibitory activity (IC50)
Description: Measurement of B-Raf Kinase Activity (Kinase Cascade Assay)
(1) Activation of MAP Kinase 2/Erk2 by B-Raf
Magnesium/ATP solution (500 μM ATP, 75 mM magnesium chloride) was prepared (10 μL). Diluted B-Raf-V600E enzyme (2.5 μL) was added at a final concentration of 1 ng/mL. and inactivated MEK1 (1.6 μL) was added at a final concentration of 0.4 μg/mL. Then, inactivated MAP Kinase 2/Erk2 (4 μL) was added at a final concentration of 1.0 μg/mL. The test compound was prepared at a concentration of 10 mM in dimethylsulfoxide (DMSO) and diluted to various concentrations (DMSO 2.6%). The final volume was adjusted to 38 μL by adding Assay Dilution Butter I (ADBI) and the mixture was allowed to react at 30° C. for 30 minutes. 5 μL of the mixture solution was taken to perform the next process.
(2) Phosphorylation of Myelin Basic Protein (MBP)
The mixture solution (5 μL) was treated with assay dilution buffer (10 μL) and then with myelin basic protein (MBP, 2 mg/mL, 10 μL). [γ-32P] ATP (100 μCi/container) diluted to 1/10 was added in 10 μL aliquots. After reaction at 30° C. for […] and then placing P81 paper in a scintillation vial, spotting was performed slowly using 25 μL of the reaction mixture. After washing 4 times with 0.75% phosphoric acid for 10 minutes and washing once with acetone for 5 minutes, 5 mL of scintillation cocktail was added to the scintillation vial. Signals were recorded using a scintillation counter.

[2] = system: A375P cells; experiment: Inhibitory activity against proliferation of A375P melanoma cells (MTT assay); type: cell-based; settings: A375P human melanoma cells with B-Raf-V600E
Description: Measurement of Inhibitory Activity Against Proliferation of A375P Melanoma Cells
A375P cells purchased from ATCC were cultured in DMEM [10% FBS, 1% penicillin/streptomycin] at 37° C. in the presence of 5% CO2. The cultured A375P cells were harvested with 0.05% trypsin-0.02% EDTA and seeded in a 96-well plate at 5×10^3 cells per well.
3-(4,5-Dimethylthiazol-2-yl)-2,5-diphenyltetrazolium bromide (MTT) assay (CellTiter 96 Assay, Promega) was employed to measure cell viability. After adding 15 μL of a dye per well and culturing for 2 hours, the cells were treated with 100 μL of a stop solution and absorbance was measured 24 hours later. The test compound was treated a day after plating. The test compound had been sequentially diluted at 12 concentrations from a 10 mM stock solution using sterilized dimethylsulfoxide (DMSO) and treated with an amount of 0.5 μL. Absorbance at 590 nm was recorded using EnVision2103, and GI50 value was calculated using GraphPad Prism 4.0 software.
The inhibitory activity against proliferation of the A375P cells of some typical compounds according to the present invention is given in Table 2.

[3] = system: A375 melanoma cells; settings: read-out: proliferation of A375 melanoma cells IC50; cited from earlier work
[4] = 600 mg twice a day, clinical; cited from earlier work

Chain of B-Raf-V600E kinase (P15056 whole entry V600E): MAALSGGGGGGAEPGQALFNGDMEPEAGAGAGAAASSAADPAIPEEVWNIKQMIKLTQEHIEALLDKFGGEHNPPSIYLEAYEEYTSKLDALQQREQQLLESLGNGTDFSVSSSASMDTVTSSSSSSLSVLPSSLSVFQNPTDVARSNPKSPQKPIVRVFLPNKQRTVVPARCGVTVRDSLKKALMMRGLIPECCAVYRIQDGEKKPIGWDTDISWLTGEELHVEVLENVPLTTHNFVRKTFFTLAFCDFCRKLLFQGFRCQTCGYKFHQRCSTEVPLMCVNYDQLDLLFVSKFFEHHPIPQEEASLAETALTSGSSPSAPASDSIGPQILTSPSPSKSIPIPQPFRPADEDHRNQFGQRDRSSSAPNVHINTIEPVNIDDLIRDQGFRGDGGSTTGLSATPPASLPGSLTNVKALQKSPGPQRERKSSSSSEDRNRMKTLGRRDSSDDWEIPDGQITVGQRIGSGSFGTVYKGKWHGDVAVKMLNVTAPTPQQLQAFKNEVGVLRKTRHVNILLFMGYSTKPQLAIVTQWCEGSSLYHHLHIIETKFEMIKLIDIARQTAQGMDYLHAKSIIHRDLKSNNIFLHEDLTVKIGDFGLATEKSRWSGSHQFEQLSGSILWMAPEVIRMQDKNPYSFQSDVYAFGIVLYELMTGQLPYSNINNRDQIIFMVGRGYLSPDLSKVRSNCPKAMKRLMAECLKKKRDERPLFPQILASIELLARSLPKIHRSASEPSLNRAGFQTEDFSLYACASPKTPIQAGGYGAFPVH

Compound | GI50 [2] | other results
O=[N+]([O-])c1cccc(-c2ccc3c(Br)cn(-c4cc(Cl)ncn4)c3c2)c1 [Example 9, 3-bromo-1-(6-chloropyrimidin-4-yl)-6-(3-nitrophenyl)-1H-indole] | < 10 µM | 
COc1ccc(-c2cn(-c3ccncc3)c3cc(N4CCNCC4)ccc23)cc1 [Example 14, 3-(4-methoxyphenyl)-6-(piperazin-1-yl)-1-(pyridin-4-yl)-1H-indole] | < 10 µM | 
CC(=O)Nc1cccc(-c2ccc3c(-c4ccc(OCCN(C)C)cc4)cn(-c4ccncc4)c3c2)c1 [Example 25, N-(3-(3-(4-(2-(dimethylamino)ethoxy)phenyl)-1-(pyridin-4-yl)-1H-indol-6-yl)phenyl)acetamide] |  | IC50 [1]: < 10 µM
CNc1cc(-n2cc(-c3cccc([N+](=O)[O-])c3)c3ccc(-c4ccc(OC)cc4)cc32)ncn1 [Example 26, 6-(6-(4-methoxyphenyl)-3-(3-nitrophenyl)-1H-indol-1-yl)-N-methylpyrimidin-4-amine] | < 10 µM | 
CNc1cc(-n2cc(-c3cccc(N)c3)c3ccc(-c4ccc(OC)cc4)cc32)ncn1 [Example 27, 6-(3-(3-aminophenyl)-6-(4-methoxyphenyl)-1H-indol-1-yl)-N-methylpyrimidin-4-amine] | < 10 µM | IC50 [1]: < 10 µM
CNc1cc(-n2cc(-c3ccc(C(=O)NCCN4CCOCC4)cc3)c3ccc(-c4ccc(OC)cc4)cc32)ncn1 [Example 31, 4-(6-(4-methoxyphenyl)-1-(6-(methylamino)pyrimidin-4-yl)-1H-indol-3-yl)-N-(2-morpholinoethyl)benzamide] | < 10 µM | 
CNc1cc(-n2cc(-c3ccc(OC)cc3)c3ccc(-c4cccc(NC(=O)Nc5ccc(Cl)c(C(F)(F)F)c5)c4)cc32)ncn1 [Example 37, 1-(4-chloro-3-(trifluoromethyl)phenyl)-3-(3-(3-(4-methoxyphenyl)-1-(6-(methylamino)pyrimidin-4-yl)-1H-indol-6-yl)phenyl)urea] | < 10 µM | 
CCCS(=O)(=O)Nc1ccc(F)c(C(=O)c2c[nH]c3ncc(Cl)cc23)c1F [PLX4720] |  | IC50 [3]: 0.5 µM
CNC(=O)c1cc(Oc2ccc(NC(=O)Nc3ccc(Cl)c(C(F)(F)F)c3)cc2)ccn1 [sorafenib, Sorafenib] |  | skin toxicity on administration [4]: grade 3 skin toxicity

Now from value to compound, other results behind:

GI50 [2] | Compound | other results
< 10 µM | 4-(6-(4-methoxyphenyl)-1-(6-(methylamino)pyrimidin-4-yl)-1H-indol-3-yl)benzoate [Example 30] | IC50 [1]: < 10 µM
< 10 µM | COc1ccc(-c2cn(-c3ccncc3)c3cc(N4CCN(C(=O)OC(C)(C)C)CC4)ccc23)cc1 [Example 13, tert-butyl 4-(3-(4-methoxyphenyl)-1-(pyridin-4-yl)-1H-indol-6-yl)piperazine-1-carboxylate] | 
< 10 µM | CNc1cc(-n2cc(-c3cccc(NC(C)=O)c3)c3ccc(-c4ccc(OC)cc4)cc32)ncn1 [Example 28, N-(3-(6-(4-methoxyphenyl)-1-(6-(methylamino)pyrimidin-4-yl)-1H-indol-3-yl)phenyl)acetamide] | 
< 10 µM | COc1ccc(-c2cn(-c3ccnc([S+](C)[O-])n3)c3cc(-c4cccc([N+](=O)[O-])c4)ccc23)cc1 (stereo not drawn) [Example 33, 3-(4-methoxyphenyl)-1-(2-(methylsulfinyl)pyrimidin-4-yl)-6-(3-nitrophenyl)-1H-indole] | 
< 10 µM | CNc1cc(-n2cc(-c3ccc(OC)cc3)c3ccc(-c4cccc(NC(=O)Nc5ccccc5OC)c4)cc32)ncn1 [Example 39, 1-(2-methoxyphenyl)-3-(3-(3-(4-methoxyphenyl)-1-(6-(methylamino)pyrimidin-4-yl)-1H-indol-6-yl)phenyl)urea] | IC50 [1]: < 10 µM
< 10 µM | CNc1cc(-n2cc(-c3cccc(NC(=O)Nc4ccc(Cl)c(C(F)(F)F)c4)c3)c3ccc(-c4ccc(OC)cc4)cc32)ncn1 [Example 45, 1-(4-chloro-3-(trifluoromethyl)phenyl)-3-(3-(6-(4-methoxyphenyl)-1-(6-(methylamino)pyrimidin-4-yl)-1H-indol-3-yl)phenyl)urea] | 
